Measurements as given in patent publication US7390806B2, “Antibiotics containing borinic acid complexes and methods of use” (Anacor Pharmaceuticals, Inc., priority 2002, dated 2008).
≈ marks a conversion by molar mass, not a printed value.

What was measured:
[1] = system: E. faecium CT-26; test: MIC determination, E. faecium CT-26; type: cell-based, Enterococcus faecium; conditions: for MIC E. faecium CT-26: Table 1; for MIC: Enterococcus faecium, CT26, Table 1, read-out: MIC E. faecium CT-26
[2] = system: M. catarrhalis ATCC 25238; test: MIC determination, M. catarrhalis ATCC 25238; type: cell-based; conditions: for MIC M. catarrhalis ATCC 25238: Table 1; for MIC: Moraxella catarrhalis, ATCC25238, Table 1, read-out: MIC M. catarrhalis ATCC 25238
[3] = system: E. faecalis ATCC 29212; test: MIC determination, E. faecalis ATCC 29212; type: cell-based, Enterococcus faecalis; conditions: for MIC E. faecalis ATCC 29212: Table 1; for MIC: Enterococcus faecalis, ATCC29212, Table 1, read-out: MIC E. faecalis ATCC 29212
[4] = system: S. epidermidis ATCC 12228; test: MIC determination, S. epidermidis ATCC 12228; type: cell-based, Staphylococcus epidermidis; conditions: for MIC S. epidermidis ATCC 12228: Table 1; for MIC: Staphylococcus epidermidis, ATCC12228, Table 1, read-out: MIC S. epidermidis ATCC 12228
[5] = system: S. aureus ATCC 29213; test: MIC determination, S. aureus ATCC 29213; type: cell-based, Staphylococcus aureus; conditions: for MIC S. aureus ATCC 29213: Table 1; for MIC: Staphylococcus aureus, ATCC29213, Table 1, read-out: MIC S. aureus ATCC 29213
[6] = system: S. pneumoniae ATCC 6301; test: MIC determination, S. pneumoniae ATCC 6301; type: cell-based, Streptococcus pneumoniae; conditions: for MIC S. pneumoniae ATCC 6301: Table 1; for MIC: Streptococcus pneumoniae, ATCC6301, Table 1, read-out: MIC S. pneumoniae ATCC 6301

| SMILES | MIC E. faecium CT-26 [1] [micrograms per ml] | MIC M. catarrhalis ATCC 25238 [2] [micrograms per ml] | MIC E. faecalis ATCC 29212 [3] [micrograms per ml] | MIC S. epidermidis ATCC 12228 [4] [micrograms per ml] | MIC S. aureus ATCC 29213 [5] [micrograms per ml] | MIC S. pneumoniae ATCC 6301 [6] [micrograms per ml] | MIC [1] [µg/mL] | MIC [2] [µg/mL] | MIC [3] [µg/mL] | MIC [4] [µg/mL] | MIC [5] [µg/mL] | MIC [6] [µg/mL] |
| --- | --- | --- | --- | --- | --- | --- | --- | --- | --- | --- | --- | --- |
| Oc1cccc2cccnc12 [Compound 92, 8-hydroxyquinoline] | 4 | 1 | 8 | 1 | 2 | 2 | – | – | – | – | – | – |
| Cc1ccnc2c(O)cccc12 [Compound 67] | 4 | 0.5 | 64 | 1 | 2 | 1 | – | – | – | – | – | – |
| O=[N+]([O-])c1ccc(O)c2ncccc12 [Compound 22] | – | – | – | – | – | – | 16 (≈ 84.1 µM) | 0.12 (≈ 0.631 µM) | 64 (≈ 337 µM) | 4 (≈ 21 µM) | 0.5 (≈ 2.63 µM) | 2 (≈ 10.5 µM) |
| Oc1cccc2cccnc12 [Compound 15, 8-hydroxyquinoline] | 4 | 0.5 | 16 | 1 | 0.125 | 2 | – | – | – | – | – | – |
| N#Cc1ccc(O)c2ncccc12 [Compound 21, 5-cyano-8-hydroxyquinoline] | – | – | – | – | – | – | 8 (≈ 47 µM) | 0.25 (≈ 1.47 µM) | 16 (≈ 94 µM) | 4 (≈ 23.5 µM) | 0.5 (≈ 2.94 µM) | 2 (≈ 11.8 µM) |
| Oc1cccc2cccnc12 [Compound 79, 8-hydroxyquinoline] | 4 | 2 | 8 | 2 | 2 | 2 | – | – | – | – | – | – |
| Oc1cccc2cccnc12 [Compound 84, 8-hydroxyquinoline] | 4 | 4 | 8 | 1 | 2 | 2 | – | – | – | – | – | – |
| Oc1cccc2cccnc12 [Compound 87, 8-hydroxyquinoline] | 4 | 1 | 8 | 1 | 2 | 2 | – | – | – | – | – | – |
| Cc1ccnc2c(O)cccc12 [Compound 14] | – | – | – | – | 0.125 | – | 4 (≈ 25.1 µM) | 0.5 (≈ 3.14 µM) | 64 (≈ 402 µM) | 1 (≈ 6.28 µM) | – | 1 (≈ 6.28 µM) |
| Clc1cccc(B(Oc2cccc3cccnc23)c2cccs2)c1 [Compound 36, (3-Chlorophenyl)(2-thienyl)borinic acid 8-hydroxyquinoline ester] | 2 | 4 | 8 | 1 | 1 | 2 | – | – | – | – | – | – |
| Oc1cccc2cccnc12 [Compound 82, 8-hydroxyquinoline] | 2 | 4 | 8 | 2 | 2 | 2 | – | – | – | – | – | – |
| Oc1cccc2cccnc12 [Compound 29, 8-hydroxyquinoline] | 2 | 0.5 | 8 | 1 | 0.5 | 2 | – | – | – | – | – | – |
| Oc1cccc2cccnc12 [Compound 47, 8-hydroxyquinoline] | 2 | 1 | 8 | 1 | 1 | 1 | – | – | – | – | – | – |
| Oc1cccc2cccnc12 [Compound 85, 8-hydroxyquinoline] | 4 | 2 | 4 | 1 | 2 | 2 | – | – | – | – | – | – |
| Oc1ccc(F)c2cccnc12 [Compound 35] | 4 | 2 | 8 | 2 | 1 | 2 | – | – | – | – | – | – |
| Oc1cccc2cccnc12 [Compound 90, 8-hydroxyquinoline] | 2 | 2 | 8 | 2 | 2 | 1 | – | – | – | – | – | – |
| Oc1cccc2cccnc12 [Compound 28, 8-hydroxyquinoline] | 2 | 1 | 4 | 1 | 0.5 | 2 | – | – | – | – | – | – |
